± gives the expanded uncertainty stated by the source.
Assay: molar heat capacity at constant pressure
Settings: 101.33 kPa

CCCC(C)O (stereo unspecified) [pentan-2-ol]
Settings	molar heat capacity at constant pressure [J/K/mol]
79.67 K, Glass	63.18 ± 1.6
80.46 K, Glass	63.33 ± 1.6
82.3 K, Glass	64.14 ± 1.6
84.42 K, Glass	67.58 ± 1.7
85.14 K, Glass	66.47 ± 1.7
85.32 K, Glass	67.84 ± 1.7
86.75 K, Glass	68.64 ± 1.7
87.94 K, Glass	69.06 ± 1.7
88.7 K, Glass	70.03 ± 1.7
90.63 K, Glass	71.1 ± 2.1
90.73 K, Glass	70.94 ± 2.1
92.44 K, Glass	69.53 ± 2.1
92.56 K, Glass	72.26 ± 2.2
93.14 K, Glass	65.87 ± 2
93.54 K, Glass	72.61 ± 2.1
94.47 K, Glass	69.28 ± 2.1
94.5 K, Glass	73.35 ± 2.1
95.82 K, Glass	74.84 ± 2.2
96.37 K, Glass	74.28 ± 2.1
96.39 K, Glass	69.82 ± 2.2
96.44 K, Glass	74.4 ± 2.1
96.51 K, Glass	73.84 ± 2.1
97.85 K, Glass	74.9 ± 2.2
98.3 K, Glass	70.93 ± 2.4
98.39 K, Glass	75.87 ± 2.4
99.21 K, Glass	76.42 ± 2.2
99.81 K, Glass	76.63 ± 2.2
100.21 K, Glass	72.31 ± 2.1
100.33 K, Glass	77.32 ± 2.4
101.76 K, Glass	76.89 ± 2.2
102.06 K, Glass	77.9 ± 2.2
102.12 K, Glass	72.26 ± 2.1
102.28 K, Glass	78.12 ± 2.3
103.71 K, Glass	77.71 ± 2.2
104.04 K, Glass	72.83 ± 2.1
104.24 K, Glass	78.97 ± 2.2
104.91 K, Glass	79.34 ± 2.2
105.66 K, Glass	79.19 ± 2.2
105.95 K, Glass	74.19 ± 2.1
106.19 K, Glass	80.14 ± 2.3
107.61 K, Glass	80.61 ± 2.3
107.78 K, Glass	81.22 ± 2.3
107.87 K, Glass	75.02 ± 2.2
108.15 K, Glass	81.83 ± 2.3
109.56 K, Glass	81.6 ± 2.3
109.78 K, Glass	76.24 ± 2.2
110.11 K, Glass	83.03 ± 2.3
110.65 K, Glass	82.72 ± 2.3
111.51 K, Glass	82.56 ± 2.4
111.7 K, Glass	77.13 ± 2.2
112.08 K, Glass	84.03 ± 2.3
113.47 K, Glass	83.55 ± 2.4
113.52 K, Glass	84.21 ± 2.5
113.62 K, Glass	77.89 ± 2.2
114.05 K, Glass	85.23 ± 2.4
115.43 K, Glass	84.36 ± 2.6
115.53 K, Glass	78.83 ± 2.5
116.02 K, Glass	86.13 ± 2.4
116.41 K, Glass	85.6 ± 2.4
117.39 K, Glass	85.19 ± 3
117.45 K, Glass	79.39 ± 3
117.99 K, Glass	86.99 ± 2.4
119.31 K, Glass	86.83 ± 3.2
119.36 K, Glass	85.74 ± 2.4
119.37 K, Glass	80.16 ± 3.2
119.97 K, Glass	87.03 ± 2.4
121.3 K, Glass	80.85 ± 2.3
121.33 K, Glass	86.41 ± 2.4
121.95 K, Glass	88.36 ± 2.4
122.2 K, Glass	88.5 ± 2.4
123.23 K, Glass	82.6 ± 2.9
123.29 K, Glass	88 ± 3
123.94 K, Glass	89.95 ± 2.4
125.11 K, Glass	91.4 ± 2.5
125.15 K, Glass	84.47 ± 2.5
125.26 K, Glass	89.98 ± 2.4
125.92 K, Glass	92.63 ± 2.5
127.07 K, Glass	88.92 ± 2.6
127.21 K, Glass	95.14 ± 2.7
134.18 K, Liquid	138.36 ± 3.4
134.47 K, Liquid	145.14 ± 3.5
135.24 K, Liquid	146.4 ± 3.5
136 K, Liquid	146.52 ± 3.5
136.05 K, Liquid	138.34 ± 3.4
136.39 K, Liquid	145.03 ± 3.5
137.22 K, Liquid	146.29 ± 3.5
137.97 K, Liquid	138.35 ± 3.4
138.36 K, Liquid	145.17 ± 3.5
138.84 K, Liquid	146.59 ± 3.5
139.21 K, Liquid	146.22 ± 3.5
139.9 K, Liquid	138.69 ± 3.4
140.33 K, Liquid	145.48 ± 3.5
141.2 K, Liquid	146.34 ± 3.5
141.77 K, Liquid	146.74 ± 3.5
141.83 K, Liquid	139.02 ± 3.4
142.3 K, Liquid	145.81 ± 3.5
143.19 K, Liquid	146.48 ± 3.5
143.77 K, Liquid	139.32 ± 3.4
144.73 K, Liquid	146.91 ± 3.5
145.18 K, Liquid	146.45 ± 3.5
147.18 K, Liquid	146.59 ± 3.5
147.68 K, Liquid	147.17 ± 3.5
149.17 K, Liquid	146.66 ± 3.5
150.63 K, Liquid	147.42 ± 3.5
151.16 K, Liquid	146.74 ± 3.5
153.16 K, Liquid	146.86 ± 3.5
153.58 K, Liquid	147.65 ± 3.5
155.16 K, Liquid	147.04 ± 3.5
156.54 K, Liquid	148.06 ± 3.6
157.16 K, Liquid	147.26 ± 3.5
159.16 K, Liquid	147.41 ± 3.5
159.5 K, Liquid	148.35 ± 3.6
161.15 K, Liquid	147.59 ± 3.5
162.46 K, Liquid	148.75 ± 3.6
163.15 K, Liquid	147.87 ± 3.5
165.15 K, Liquid	148.07 ± 3.6
165.42 K, Liquid	149.14 ± 3.6
167.15 K, Liquid	148.38 ± 3.6
168.38 K, Liquid	149.64 ± 3.6
169.15 K, Liquid	148.62 ± 3.6
171.15 K, Liquid	148.98 ± 3.6
171.34 K, Liquid	150.12 ± 3.6
173.15 K, Liquid	149.17 ± 3.6
174.31 K, Liquid	150.62 ± 3.6
175.15 K, Liquid	149.61 ± 3.6
177.14 K, Liquid	150.03 ± 3.6
177.27 K, Liquid	151.24 ± 3.6
179.14 K, Liquid	150.37 ± 3.6
180.22 K, Liquid	151.84 ± 3.6
181.14 K, Liquid	150.83 ± 3.6
183.13 K, Liquid	151.22 ± 3.6
183.15 K, Liquid	152.41 ± 3.6
185.13 K, Liquid	151.66 ± 3.6
186.06 K, Liquid	153.18 ± 3.7
187.13 K, Liquid	152.22 ± 3.6
188.97 K, Liquid	153.85 ± 3.7
189.12 K, Liquid	152.69 ± 3.6
191.11 K, Liquid	153.28 ± 3.7
191.86 K, Liquid	154.61 ± 3.7
193.1 K, Liquid	153.79 ± 3.7
194.73 K, Liquid	155.46 ± 3.7
195.09 K, Liquid	154.43 ± 3.7
197.08 K, Liquid	155.04 ± 3.7
197.6 K, Liquid	156.28 ± 3.7
199.07 K, Liquid	155.64 ± 3.7
200.45 K, Liquid	157.17 ± 3.7
201.05 K, Liquid	156.37 ± 3.7
203.04 K, Liquid	157.14 ± 3.7
203.28 K, Liquid	158.12 ± 3.8
205.02 K, Liquid	157.9 ± 3.8
206.11 K, Liquid	159.16 ± 3.8
207 K, Liquid	158.71 ± 3.8
208.92 K, Liquid	160.23 ± 3.8
208.98 K, Liquid	159.59 ± 3.8
210.96 K, Liquid	160.43 ± 3.8
211.71 K, Liquid	161.38 ± 3.8
212.93 K, Liquid	161.43 ± 3.8
214.5 K, Liquid	162.6 ± 3.8
214.9 K, Liquid	162.36 ± 3.8
216.87 K, Liquid	163.53 ± 3.9
217.27 K, Liquid	163.98 ± 3.9
218.83 K, Liquid	164.58 ± 3.9
220.03 K, Liquid	165.38 ± 3.9
220.79 K, Liquid	165.86 ± 3.9
222.74 K, Liquid	167.19 ± 3.9
222.77 K, Liquid	166.74 ± 3.9
224.69 K, Liquid	168.3 ± 4
225.5 K, Liquid	168.21 ± 4
226.64 K, Liquid	169.58 ± 4
228.21 K, Liquid	169.75 ± 4
228.58 K, Liquid	170.97 ± 4
230.52 K, Liquid	172.4 ± 4
230.92 K, Liquid	171.38 ± 4
232.46 K, Liquid	173.26 ± 4.1
233.61 K, Liquid	173.02 ± 4
234.41 K, Liquid	174.28 ± 4.1
236.28 K, Liquid	174.82 ± 4.1
236.37 K, Liquid	175.25 ± 4.1
238.35 K, Liquid	176.25 ± 4.1
238.94 K, Liquid	176.57 ± 4.1
240.33 K, Liquid	177.32 ± 4.1
241.59 K, Liquid	178.24 ± 4.2
242.31 K, Liquid	178.65 ± 4.2
244.22 K, Liquid	179.98 ± 4.2
244.29 K, Liquid	180.19 ± 4.2
246.27 K, Liquid	181.71 ± 4.2
246.84 K, Liquid	181.91 ± 4.2
248.24 K, Liquid	183.24 ± 4.3
249.45 K, Liquid	183.85 ± 4.3
250.22 K, Liquid	184.81 ± 4.3
252.04 K, Liquid	185.96 ± 4.3
252.19 K, Liquid	186.49 ± 4.3
254.17 K, Liquid	187.53 ± 4.3
254.62 K, Liquid	187.26 ± 4.3
256.15 K, Liquid	189.21 ± 4.4
257.2 K, Liquid	189.4 ± 4.4
258.13 K, Liquid	190.9 ± 4.4
259.75 K, Liquid	191.63 ± 4.4
260.11 K, Liquid	192.75 ± 4.5
262.08 K, Liquid	194.51 ± 4.5
262.3 K, Liquid	193.87 ± 4.5
264.06 K, Liquid	196.4 ± 4.5
264.83 K, Liquid	196.18 ± 4.5
266.04 K, Liquid	198.15 ± 4.6
267.34 K, Liquid	198.56 ± 4.6
268.01 K, Liquid	200.17 ± 4.6
269.84 K, Liquid	201.01 ± 4.6
269.99 K, Liquid	202.16 ± 4.6
271.96 K, Liquid	204.25 ± 4.7
272.33 K, Liquid	203.73 ± 4.7
273.94 K, Liquid	206.27 ± 4.7
274.8 K, Liquid	206.33 ± 4.7
275.91 K, Liquid	208.32 ± 4.8
277.26 K, Liquid	208.61 ± 4.8
277.88 K, Liquid	210.5 ± 4.8
279.7 K, Liquid	211.18 ± 4.8
279.86 K, Liquid	212.62 ± 4.8
281.83 K, Liquid	214.76 ± 4.9
282.13 K, Liquid	213.77 ± 4.9
283.81 K, Liquid	216.99 ± 4.9
284.54 K, Liquid	216.55 ± 4.9
285.79 K, Liquid	219.38 ± 5
286.94 K, Liquid	219.25 ± 5
287.77 K, Liquid	221.67 ± 5
289.33 K, Liquid	222.07 ± 5
289.75 K, Liquid	224.09 ± 5.1
291.7 K, Liquid	224.87 ± 5.1
291.73 K, Liquid	226.3 ± 5.1
293.71 K, Liquid	228.63 ± 5.2
294.06 K, Liquid	227.43 ± 5.2
295.69 K, Liquid	231.18 ± 5.2
296.41 K, Liquid	230.08 ± 5.2
297.66 K, Liquid	233.65 ± 5.3
298.75 K, Liquid	233 ± 5.3
299.65 K, Liquid	235.81 ± 5.3
301.07 K, Liquid	235.62 ± 5.3
